Data from article PMC8396040, “Direct Synthesis of Polyaromatic Cyclophanes Containing Bis-Methylene-Interrupted Z-Double Bonds and Study of Their Antitumor Activity In Vitro” (International Journal of Molecular Sciences, 2021).
In brackets after ≈: the same amount, converted by molar mass.

Assays:
K562 = experiment: Cytotoxicity, flow cytofluorimetry (Guava ViaCount / 7-AAD); type: cell-based; conditions: Homo sapiens, mean ± SEM, at least 3 independent experiments
Method: (§1) The cytotoxicity of the prepared compounds was studied using Jurkat, K562, U937, and HL-60 suspension tumor cells; conditionally normal Hek293 cells; and normal fibroblasts. The IC50 values were determined by flow cytofluorimetry with the Guava ViaCount reagent kit (Millipore, Bedford, MA, USA).
(§2) Cells (Jurkat, K562, U937, HL-60, HEK293, and normal fibroblasts) were purchased from HPA Culture Collections (Salisbury, UK) and cultured according to standard mammalian tissue culture protocols and the sterile technique. All cell lines used in the study were tested and shown to be free of mycoplasma and other […] contamination. HEK293 and fibroblast cell lines were cultured as monolayers and maintained in Dulbecco’s modified Eagle’s medium (DMEM, Gibco BRL, Waltham, MA, USA) supplemented with 10% fetal bovine serum and 1% penicillin-streptomycin solution at 37 °C in a humidified incubator under a 5% CO2 atmosphere.
(§3) Cells were maintained in RPMI 1640 (Jurkat, K562, U937, HL60) (Gibco, Waltham, MA, USA) supplemented with 4 mM glutamine, 10% FBS (Sigma, Burlington, MA, USA), and 100 units/ml penicillin–streptomycin (Sigma, Burlington, MA, USA). All types of cells were grown in an atmosphere of 5% CO2 at 37 °C. The cells were subcultured at 2–3-day intervals. Adherent cells (HEK293 and normal fibroblasts) were suspended using trypsin/EDTA and counted after they reached 80% confluency. Cells were then seeded in 24-well plates at 5 × 10^4 cells per well and incubated overnight. Jurkat, K562, U937, and HL60 cells were subcultured at 2-day intervals with a seeding density of 1 × 10^5 cells per 24-well plates in RPMI with 10% FBS.
(§4) Viability (live/dead) assessment was performed by staining cells with 7-AAD (7-Aminoactinomycin D) (Biolegend, Fell, Germany). After treatment, cells were harvested, washed 1–2 times with phosphate-buffered saline (PBS), and centrifuged at 400× g for 5 min. Cell pellets were resuspended in […] of flow cytometry staining buffer (PBS without Ca^2+ and Mg^2+, 2.5% FBS) and stained with 5 μL of 7-AAD staining solution for 15 min at room temperature in the dark. Samples were acquired on a NovoCyteTM 2000 FlowCytometry System (ACEA) equipped with a 488 nm argon laser. Detection of 7-AAD emission was collected through a 675/30 nm filter in FL4 channel.

normal fibroblasts = experiment: as above; type: cell-based; conditions: Fibroblast; mean ± SEM, at least 3 independent experiments; read-out: Fibrobl. (IC50)
Method: as §1, §2, §3, §4

Hek293 = experiment: as above; type: cell-based; conditions: Homo sapiens, mean ± SEM, at least 3 independent experiments
Method: as §1, §2, §3, §4

Jurkat = experiment: as above; type: cell-based; conditions: Homo sapiens, mean ± SEM, at least 3 independent experiments
Method: as §1, §2, §3, §4

U937 = experiment: as above; type: cell-based; conditions: Homo sapiens, U-937; mean ± SEM, at least 3 independent experiments
Method: as §1, §2, §3, §4

HL-60 = experiment: as above; type: cell-based; conditions: Homo sapiens, mean ± SEM, at least 3 independent experiments
Method: as §1, §2, §3, §4

Jurkat cells [1] = experiment: Cell cycle analysis (Guava Cell Cycle Reagent); type: cell-based; conditions: IC50 concentrations (8a 0.15 µM, 8b 0.16 µM, 8c 0.13 µM), 24 h
Method: Cell cycle analysis was carried out following the known procedure. Guava Cell Cycle Reagent (Millipore, Burlington, MA, USA) was used. Samples were analyzed on a NovoCyteTM 2000 FlowCytometry System (ACEA, San Diego, CA, USA).

Jurkat cells [2] = experiment: Mitochondrial damage, MitoSense Red / Annexin V-CF488A / 7-AAD (FlowCellect MitoDamage Kit); type: cell-based; conditions: for percentage of Jurkat tumor cells with reduced Δψ: 4 h (Figure 4)
Text: The changes in the mitochondrial membrane potential (ΔΨ) in Jurkat cells induced by treatment with compounds 8a, 8b, and 8c were detected using the MitoSense Red, a fluorescent dye, which is mainly accumulated in mitochondria and responds to changes in the membrane potential. The viable whole-body cells induce a high fluorescence level of MitoSense Red, whereas cells with dissipated mitochondrial membrane potential cause much lower fluorescence of MitoSense Red or no fluorescence. Annexin V and 7AAD are two dyes commonly used to detect apoptotic cells. […] Thus, using three different dyes, MitoSense Red, Annexin V (CF488A), and 7-AAD, we analyzed the dissipation of the mitochondrial membrane potential and the related apoptosis in Jurkat tumor cells in response to the action of synthesized macrodiolides (Figure 4).
Mitochondrial damage tests were carried out following the known procedure. Cytometric assay (Millipore’s FlowCellect™MitoDamage Kit, Merck, Burlington, MA, USA) that allowed multiparametric evaluation of three cell health markers: change in mitochondrial potential (early apoptosis and cellular stress), phosphatidylserine expression on the cell surface […], and membrane permeabilization (cell death), was used.

Jurkat cells [3] = experiment: Induction of apoptosis, Annexin V / 7AAD flow cytometry; type: cell-based; conditions: 24 h; for apoptosis-inducing effect, dependence on dose: 0.1-0.3 µM
Method: We studied the new macrodiolides for the induction of apoptosis and for the effect on the cell cycle. For this purpose, we chose the Jurkat, K562, and U937 cell lines. Apoptosis was studied by flow cytofluorimetry using Annexin V and 7-aminoactinomycin D (7AAD) (Guava Nexin reagent (Millipore, Bedford, MA, USA)). After incubation, the cells were analyzed using a NovoCyte™ 2000 Flow Cytometry System (ACEA). Apoptotic cells are characterized by externalization of the phosphatidylserine (PS) phospholipid, which is normally located, in living cells, on the inner surface of the cell membrane. The phospholipid location on the outer membrane surface can be detected from early apoptosis up to complete cell degradation. […] The use of Annexin V in combination with 7AAD allows simultaneous discrimination between viable cells (V–/7AAD–), early apoptotic cells (V+/7AAD–), and late apoptotic or necrotic cells (V+/7AAD+).
Induction of apoptosis tests were carried out following the known procedure. Apoptosis was determined by flow cytometric analysis of Annexin V and 7-aminoactinomycin D staining. After treatment, cells during 24 h were harvested, washed 1–2 times with phosphate-buffered saline (PBS), and centrifuged at 400× g for 5 min. Cell pellets were resuspended in 200 μL of flow cytometry staining buffer (PBS without Ca^2+and Mg^2+, 2.5% FBS). Then, 200 μL of Guava Nexin reagent (Millipore, Bedford, MA, USA) were added to 5 × 10^5 cells in 200 μL, and the cells were incubated with the reagent for 20 min at room temperature in the dark. At the end of incubation, the cells were analyzed on a NovoCyteTM 2000 FlowCytometry System (ACEA, San Diego, CA, USA).

[4] = tested on: HT-29 human colon cancer cells; set-up: method as in PMID 12530851, PMID 16551088; conditions: HT-29 cell line; cited from earlier work

Structure (SMILES): O=C1OCCC/C=C\CC/C=C\CCCOC(=O)c2ccccc2OCc2ccccc2COc2ccccc21 [6a, (10Z,14Z)-7,8,9,12,13,16,17,18,26,31-decahydro-5H,20H-tribenzo[c,g,k][1,5,10,14]tetraoxacyclohexacosine-5,20-dione]
- IC50 (K562): 610 ± 50 nM
- IC50 (normal fibroblasts): 4710 ± 420 nM
- IC50 (Hek293): 1940 ± 170 nM
- IC50 (Jurkat): 390 ± 30 nM
- IC50 (U937): 490 ± 40 nM
- IC50 (HL-60): 430 ± 30 nM

Structure (SMILES): O=C1OCCC/C=C\CC/C=C\CCCOC(=O)c2ccccc2OCc2cccc(c2)COc2ccccc21 [6b, (13Z,17Z)-2,6,9,22-tetraoxa-1,7(1,2),4(1,3)-tribenzenacyclotricosaphane-13,17-diene-8,23-dione]
- IC50 (K562): 640 ± 60 nM
- IC50 (normal fibroblasts): 5090 ± 470 nM
- IC50 (Hek293): 2180 ± 210 nM
- IC50 (Jurkat): 480 ± 50 nM
- IC50 (U937): 510 ± 50 nM
- IC50 (HL-60): 440 ± 40 nM

Structure (SMILES): O=C1OCCC/C=C\CC/C=C\CCCOC(=O)c2ccccc2OCc2ccc(cc2)COc2ccccc21 [6c, (13Z,17Z)-2,6,9,22-tetraoxa-1,7(1,2),4(1,4)-tribenzenacyclotricosaphane-13,17-diene-8,23-dione]
- IC50 (K562): 580 ± 50 nM
- IC50 (normal fibroblasts): 4220 ± 390 nM
- IC50 (Hek293): 1760 ± 160 nM
- IC50 (Jurkat): 340 ± 30 nM
- IC50 (U937): 460 ± 40 nM
- IC50 (HL-60): 400 ± 30 nM

Structure (SMILES): O=C1OCCCC/C=C\CC/C=C\CCCCOC(=O)c2ccccc2OCc2ccccc2COc2ccccc21 [7a, (11Z,15Z)-7,8,9,10,13,14,17,18,19,20,28,33-dodecahydro-5H,22H-tribenzo[c,g,k][1,5,10,14]tetraoxacyclooctacosine-5,22-dione]
- IC50 (K562): 760 ± 80 nM
- IC50 (normal fibroblasts): 7120 ± 590 nM
- IC50 (Hek293): 3860 ± 340 nM
- IC50 (Jurkat): 490 ± 40 nM
- IC50 (U937): 560 ± 60 nM
- IC50 (HL-60): 940 ± 80 nM

Structure (SMILES): O=C1OCCCC/C=C\CC/C=C\CCCCOC(=O)c2ccccc2OCc2cccc(c2)COc2ccccc21 [7b, (14Z,18Z)-2,6,9,24-tetraoxa-1,7(1,2),4(1,3)-tribenzenacyclopentacosaphane-14,18-diene-8,25-dione]
- IC50 (K562): 1490 ± 110 nM
- IC50 (normal fibroblasts): 7690 ± 720 nM
- IC50 (Hek293): 4210 ± 390 nM
- IC50 (Jurkat): 940 ± 80 nM
- IC50 (U937): 1170 ± 90 nM
- IC50 (HL-60): 970 ± 90 nM

Structure (SMILES): O=C1OCCCC/C=C\CC/C=C\CCCCOC(=O)c2ccccc2OCc2ccc(cc2)COc2ccccc21 [7c, (14Z,18Z)-2,6,9,24-tetraoxa-1,7(1,2),4(1,4)-tribenzenacyclopentacosaphane-14,18-diene-8,25-dione]
- IC50 (K562): 590 ± 40 nM
- IC50 (normal fibroblasts): 6550 ± 610 nM
- IC50 (Hek293): 3470 ± 310 nM
- IC50 (Jurkat): 350 ± 30 nM
- IC50 (U937): 390 ± 30 nM
- IC50 (HL-60): 890 ± 90 nM

Structure (SMILES): O=C1OCCCCCC/C=C\CC/C=C\CCCCCCOC(=O)c2ccccc2OCc2ccccc2COc2ccccc21 [8a, (13Z,17Z)-7,8,9,10,11,12,15,16,19,20,21,22,23,24,32,37-hexadecahydro-5H,26H-tribenzo[c,g,k][1,5,10,14]tetraoxacyclodotriacontine-5,26-dione]
- Freq G1 (percentage of cells in G0/G1 phase) (Jurkat cells [1]): 63.04%
- action on mitochondria (reduction of mitochondrial potential) compared with staurosporine (Jurkat cells [2]): comparable with the action of staurosporine
- percentage of Jurkat tumor cells with reduced Δψ (Jurkat cells [2]; 0.15 µM): 19.36%
- apoptosis-inducing effect, dependence on dose (Jurkat cells [3]): dose dependent
- IC50 (K562): 370 ± 20 nM
- IC50 (normal fibroblasts): 3370 ± 290 nM
- IC50 (Hek293): 1440 ± 110 nM
- IC50 (Jurkat): 150 ± 20 nM
- IC50 (U937): 300 ± 20 nM
- IC50 (HL-60): 220 ± 20 nM

Structure (SMILES): O=C1OCCCCCC/C=C\CC/C=C\CCCCCCOC(=O)c2ccccc2OCc2cccc(c2)COc2ccccc21 [8b, (16Z,20Z)-2,6,9,28-tetraoxa-1,7(1,2),4(1,3)-tribenzenacyclononacosaphane-16,20-diene-8,29-dione]
- Freq G1 (percentage of cells in G0/G1 phase) (Jurkat cells [1]): 59.16%
- Freq Sub-G1 (cells in the sub-G0-G1 range) (Jurkat cells [1]): 4.13%
- action on mitochondria (reduction of mitochondrial potential) compared with staurosporine (Jurkat cells [2]): comparable with the action of staurosporine
- percentage of apoptotic cells (early apoptosis and late apoptosis) (Jurkat cells [2]; 0.15 µM, 4 h): 58.15%
- percentage of Jurkat tumor cells with reduced Δψ (Jurkat cells [2]; 0.15 µM): 41.71%
- An+,PI+ cells (late apoptosis) (Jurkat cells [3]; 0.1 µM): 64.36%
- An+,PI+ cells (late apoptosis) (Jurkat cells [3]; 0.3 µM): 58.0%
- PI+ cells (necrotic) (Jurkat cells [3]; 0.3 µM): 26.49%
- apoptosis-inducing effect, dependence on dose (Jurkat cells [3]): dose dependent
- IC50 (K562): 390 ± 40 nM
- IC50 (normal fibroblasts): 3480 ± 320 nM
- IC50 (Hek293): 1680 ± 140 nM
- IC50 (Jurkat): 160 ± 10 nM
- IC50 (U937): 310 ± 30 nM
- IC50 (HL-60): 240 ± 20 nM

Structure (SMILES): O=C1OCCCCCC/C=C\CC/C=C\CCCCCCOC(=O)c2ccccc2OCc2ccc(cc2)COc2ccccc21 [8c, (16Z,20Z)-2,6,9,28-tetraoxa-1,7(1,2),4(1,4)-tribenzenacyclononacosaphane-16,20-diene-8,29-dione]
- Freq G1 (percentage of cells in G0/G1 phase) (Jurkat cells [1]): 55.93%
- percentage of Jurkat tumor cells with reduced Δψ (Jurkat cells [2]; 0.15 µM): 26.26%
- apoptosis-inducing effect, dependence on dose (Jurkat cells [3]): dose dependent
- IC50 (K562): 340 ± 30 nM
- IC50 (normal fibroblasts): 3190 ± 280 nM
- IC50 (Hek293): 1210 ± 90 nM
- IC50 (Jurkat): 130 ± 10 nM
- IC50 (U937): 270 ± 20 nM
- IC50 (HL-60): 190 ± 10 nM

Structure (SMILES): Oc1cccc(C23C=C4CN(CCc5ccc(c(O)c5)-c5ccc(O)cc54)C2Cc2cccc(O)c23)c1 (centres unmarked) [Haouamine A]
- IC50 [4]: 0.1 µg/mL (≈ 0.204 µM)
